Reference: patent publication US9682033B2, “Methods of treating postherpetic neuralgia with a topical formulation of a spiro-oxindole compound” (Teva Pharmaceuticals International GmbH, priority 2015, dated 2017)
“Also recorded” adds a separate entry of the source. Like-named read-outs stand apart in the source and are kept apart here.

Assays:
[1] = tested on: minipig hepatocytes; experiment: In vitro metabolic stability in hepatocytes (minipig); format: in vitro ADME; conditions: ^14C-spiro-oxindole compound
Description: A total of 8 metabolites were identified in samples (in vitro and in vivo) from rats, dogs, and humans. All metabolites found in humans were also found in the Good Laboratory Practice (GLP) toxicology species, the rat. Following oral administration of spiro-oxindole compound to humans, spiro-oxindole compound and 3 of its metabolites (M1, M5, and M6) were measurable. A similar metabolic profile was observed following topical administration to humans, albeit at much lower plasma concentrations, except metabolite M1 was not detected following human topical administration.

[2] = Joint penetration and tissue distribution study in domestic pig, multiple-dose topical administration (Biological Example 2); format: in vivo
Procedure: This study was conducted to evaluate the joint penetration, systemic plasma exposure and tissue distribution of the spiro-oxindole compound in domestic pigs following topical administration of a pharmaceutical composition utilized in the methods of the invention. Fifteen female pigs were used in this study with three pigs in each group. Beginning on Day 1, a pharmaceutical composition of the invention was topically applied to the left radiocarpal joint (carpus) and tibiotarsal joint (hock) twice daily (bid) for 17 days (34 applications) for Groups 1-4 and once daily (qd) for 17 days (17 applications) for Group 5. Pre-dose blood samples (prior to morning dosing) was collected on Days 2, 7, 10, 14 and 17. A full pharmacokinetic sampling was performed on Day 17 (post am dosing) at the following time points: 1, 2, 4, 8 and 12 hr. On the day of necropsy, Day 18, blood was collected prior to euthanasia, each pig was humanely euthanized and dorsal skin and muscle, liver, kidney, heart, lung, brain, intestine, fat, ovaries, urinary bladder, sciatic nerve, and skin, muscle, synovial membrane, and synovial fluid from all 4 joints (2 treated, left carpus and hock, and 2 untreated, right carpus and hock) was collected.
Doses were calculated by measuring the joint circumference and joint width (to include ˜2 cm above and below the joint) to calculate the total surface area for each individual dose. Group 1 received a 2% pharmaceutical composition of the invention and the dose volume for Group 1 was calculated using the total surface area and the designated dose volume of 3 μL/cm^2. The total dose volume was then converted from μL to mL to estimate the dose weight in grams, based on the composition density of 1 g/cm^3. Following is an example (not actual measurements) of calculating the dose:
For Groups 2-5, the dose volume was calculated using the total surface area and the designated dose volume of 3 μL/cm^2 (Groups 2, 3 and 5) or 1 μL/cm^2 (Group 4). […]

[3] = tested on: several CYP450 enzymes including CYP3A4; experiment: In vitro CYP450 inhibition (human liver microsomes); format: in vitro ADME
Description: However, the compound is also highly bound to constituents in human plasma, so distribution into hepatocytes may be hindered, reducing the inhibition potential. In vitro data using human cryopreserved hepatocytes have also shown that the spiro-oxindole compound metabolite (M3) is an inhibitor of CYP3A4 and CYP2C19. Therefore, certain medications that undergo major metabolism by CYP3A4 and CYP2C19 are excluded as concomitant medications during this study.

[4] = 4-week (GLP) repeat-dose dermal toxicity study in minipigs; conditions: minipig, in vivo, topical or ocular, 30 mg/kg/day dermal, day 28; for AUC(0-t): read-out: AUC0-24 h
Procedure: Repeat-dose dermal toxicity of a pharmaceutical composition comprising the spiro-oxindole compound was evaluated in minipigs in a 7-day (non-GLP) dermal study and in a 4-week (GLP) dermal study with a 2-week recovery period. In addition, a dose range-finding (DRF) dermal study in minipigs was conducted to aid in dose selection for a 39-week dermal toxicity study in minipigs.
However, the vehicle ointment produced in all treatment groups transient, mild to moderate, and occasionally severe dermal irritation that returned to normal during the recovery period. This correlated with minimal epidermal hyperplasia observed microscopically in the treated skin across all groups.

[5] = domestic pig, topical administration to a joint

Question: With O=C1N(Cc2ccc(C(F)(F)F)o2)c2ccccc2[C@]12COc1cc3c(cc12)OCO3 [spiro-oxindole compound, (S)-1′-{[5-(trifluoromethyl)furan-2-yl]methyl}spiro[furo[2,3-f][1,3]benzodioxole-7,3′-indol]-2′(1′H)-one] as the compound, how does the “in vitro metabolic stability in hepatocytes” value [1] read?
Answer: 18%

Question: What about the “concentration in the synovial membrane tissue of the treated joint (in words)” value [2, 5] of the same compound?
Answer: micromolar concentrations

Question: What about the “plasma concentrations (in words)” value [2, 5] of the same compound?
Answer: nanomolar

Question: What about the “spiro-oxindole compound concentration in liver tissue” value ([2]; pig G2 (#4-6): 4% composition, 3 μL/cm^2 bid topical 17 days, individual animals) of the same compound?
Answer: 0/0

Question: And the “inhibition of CYP450 enzymes” value [3]?
Answer: may inhibit several CYP450 enzymes including CYP3A4; also recorded: inhibitor of several CYP450 enzymes

Question: What about the Cmax ([4]; female minipigs) of the same compound?
Answer: 20 ng/mL

Question: What about the AUC(0-t) ([4]; female minipigs) of the same compound?
Answer: 382 ng·h/mL

Question: What about the Cmax ([4]; male minipigs) of the same compound?
Answer: 21 ng/mL

Question: And the AUC(0-t) ([4]; male minipigs)?
Answer: 365 ng·h/mL
